Results from paper PMC11491488 (Scientific Reports, 2024).

How the values were obtained:
[1] = test system: gram-negative Pseudomonas aeruginosa (P. aeruginosa); test: MIC assay, percentage growth inhibition, serial dilution in 96-well plates; assay type: cell-based; conditions: for inhibition of bacterial cells: at higher concentrations
[2] = test system: gram-positive Staphylococcus aureus (S. aureus); test: as above; assay type: cell-based; conditions: for inhibition of bacterial cells: at higher concentrations

SMILES | inhibition of bacterial cells [1] [%] | inhibition of bacterial cells [2] [%] | inhibition at 40 µg/mL ([1]; Pseudomonas aeruginosa, read-out: inhibitory effect against P. aeruginosa) [%] | inhibition at 128 µg/mL ([2]; Staphylococcus aureus, read-out: inhibitory effect against S. aureus) [%] | percent of P. aeruginosa killed ([1]; 4 µg/mL) [%] | percent of S. aureus killed ([2]; 12 µg/mL) [%]
C[C@H]1COc2c(N3CCN(C)CC3)c(F)cc3c(=O)c(C(=O)O)cn1c23 [LEVO, levofloxacin] | 90 | 90 | – | – | – | –
CCn1cc(C(=O)O)c(=O)c2cc(F)c(N3CCNCC3)cc21 [NOR, norfloxacin] | 90 | 90 | 100.4 ± 0.17 | 97.9 ± 0.38 | – | –
O=C(O)c1cn(C2CC2)c2cc(N3CCNCC3)c(F)cc2c1=O [CIPRO, ciprofloxacin] | 90 | 90 | – | – | 100.67 ± 0.39 | 98.30 ± 0.26
